Experimental data: ChEMBL document CHEMBL2346515, “Discovery of 4-alkylamino-7-aryl-3-cyanoquinoline LRRK2 kinase inhibitors” (Bioorg Med Chem Lett, 2013); call rule not given here

Tests used:
[1] = target: T1, Leucine-rich repeat serine/threonine-protein kinase 2 (Homo sapiens, UniProt Q5S007); test: Inhibition of wild type GST-tagged LRRK2 (970-2527 amino acids)(unknown origin) assessed as inhibition of LRRKtide phosphorylation by HTRF assay
[2] = target: T2, Leucine-rich repeat serine/threonine-protein kinase 2 (Homo sapiens, UniProt Q5S007, G2019S); test: Inhibition of GST-tagged LRRK2 G2019S mutant (970-2527 amino acids) (unknown origin) assessed as inhibition of LRRKtide phosphorylation by HTRF assay
MDCK = test: Permeability in MDCK cells expressing MDR1; format: ADME, cell-based, Canis lupus familiaris; details: dog
[3] = target: T2, Leucine-rich repeat serine/threonine-protein kinase 2; test: Inhibition of LRRK2 G2019S mutant (unknown origin) Ser935 phosphorylation expressed in HEK293 cells by cell-based assay
Brain = test: Drug uptake in brain of MDR1 a/b(-/-) and P-gp competant wild-type FVB mouse at 1 mg/kg, iv after 5 mins; format: ADME, organism-based; parameters: dose 1 mg/kg, route intravenous; details: in vivo
[4] = target: Receptor tyrosine-protein kinase erbB-4 (Homo sapiens) (UniProt Q15303); test: Inhibition of ErbB4 (unknown origin) at 1 uM by single point assay
[5] = target: Proto-oncogene tyrosine-protein kinase receptor Ret (Homo sapiens) (UniProt P07949); test: Inhibition of RET (unknown origin) at 1 uM by single point assay
[6] = target: Receptor-type tyrosine-protein kinase FLT3 (Homo sapiens) (UniProt P36888); test: Inhibition of FLT3 (unknown origin) at 1 uM by single point assay
[7] = target: T3, Aurora kinase A (Homo sapiens) (UniProt O14965); test: Inhibition of AURKA (unknown origin) at 1 uM by single point assay
T3 sequence (whole entry): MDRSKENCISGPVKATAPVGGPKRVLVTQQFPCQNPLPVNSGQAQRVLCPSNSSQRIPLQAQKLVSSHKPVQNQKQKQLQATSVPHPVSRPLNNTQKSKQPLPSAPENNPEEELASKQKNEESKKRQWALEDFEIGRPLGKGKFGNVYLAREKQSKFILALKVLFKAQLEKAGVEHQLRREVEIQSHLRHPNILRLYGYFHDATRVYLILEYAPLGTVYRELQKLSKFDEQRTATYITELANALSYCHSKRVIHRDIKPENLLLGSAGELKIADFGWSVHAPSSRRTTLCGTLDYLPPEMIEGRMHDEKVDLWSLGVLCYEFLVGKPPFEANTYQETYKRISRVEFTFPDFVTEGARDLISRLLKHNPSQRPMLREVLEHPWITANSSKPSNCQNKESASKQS

[8] = target: Dual specificity tyrosine-phosphorylation-regulated kinase 1B (Homo sapiens) (UniProt Q9Y463); test: Inhibition of DYRK1B (unknown origin) at 1 uM by single point assay
[9] = target: Tyrosine-protein kinase SYK (Homo sapiens) (UniProt P43405); test: Inhibition of SYK (unknown origin) at 1 uM by single point assay
[10] = target: Serine/threonine-protein kinase PLK2 (Homo sapiens) (UniProt Q9NYY3); test: Inhibition of PLK2 (unknown origin) at 1 uM by single point assay
[11] = target: Calcium/calmodulin-dependent protein kinase type II subunit alpha (Homo sapiens) (UniProt Q9UQM7); test: Inhibition of CAMK2alpha (unknown origin) at 1 uM by single point assay
[12] = target: Tyrosine-protein kinase JAK1 (Homo sapiens) (UniProt P23458); test: Inhibition of JAK1 (unknown origin) at 1 uM by single point assay
[13] = target: Serine/threonine-protein kinase MARK2 (Homo sapiens) (UniProt Q7KZI7); test: Inhibition of MARK2 (unknown origin) at 1 uM by single point assay
[14] = target: Platelet-derived growth factor receptor alpha (Homo sapiens) (UniProt P16234); test: Inhibition of PDGFRalpha (unknown origin) at 1 uM by single point assay
[15] = target: Serine/threonine-protein kinase PLK1 (Homo sapiens) (UniProt P53350); test: Inhibition of PLK1 (unknown origin) at 1 uM by single point assay
[16] = target: Protein-tyrosine kinase 2-beta (Homo sapiens) (UniProt Q14289); test: Inhibition of PTK2B (unknown origin) at 1 uM by single point assay
[17] = target: Cyclin-dependent kinase 1/cyclin B1 (Homo sapiens) (UniProt P06493+P14635); test: Inhibition of CDK1/cyclin B (unknown origin) at 1 uM by single point assay; format: protein-complex assay
[18] = target: RAF proto-oncogene serine/threonine-protein kinase (Homo sapiens) (UniProt P04049); test: Inhibition of RAF1 (unknown origin) at 1 uM by single point assay
[19] = target: Serine/threonine-protein kinase PLK3 (Homo sapiens) (UniProt Q9H4B4); test: Inhibition of PLK3 (unknown origin) at 1 uM by single point assay
[20] = target: cAMP-dependent protein kinase catalytic subunit alpha (Homo sapiens) (UniProt P17612); test: Inhibition of PRKACA (unknown origin) at 1 uM by single point assay
[21] = target: Tyrosine-protein kinase ABL1 (Homo sapiens) (UniProt P00519); test: Inhibition of ABL1 (unknown origin) at 1 uM by single point assay
[22] = target: Serine/threonine-protein kinase 16 (Homo sapiens) (UniProt O75716); test: Inhibition of STK16 (unknown origin) at 1 uM by single point assay
[23] = target: T1, Leucine-rich repeat serine/threonine-protein kinase 2; test: Inhibition of LRRK2 (unknown origin) at 1 uM by single point assay
[24] = target: Cyclin-dependent kinase 2/cyclin A (Homo sapiens) (UniProt P24941+P20248+P78396); test: Inhibition of CDK2/cyclin A (unknown origin) at 1 uM by single point assay; format: protein-complex assay
[25] = target: Mitogen-activated protein kinase 1 (Homo sapiens) (UniProt P28482); test: Inhibition of MAPK1 (unknown origin) at 1 uM by single point assay
[26] = target: Receptor-interacting serine/threonine-protein kinase 2 (Homo sapiens) (UniProt O43353); test: Inhibition of RIPK2 (unknown origin) at 1 uM by single point assay

T2 sequence (Q5S007 whole entry G2019S, the tested form may be a part): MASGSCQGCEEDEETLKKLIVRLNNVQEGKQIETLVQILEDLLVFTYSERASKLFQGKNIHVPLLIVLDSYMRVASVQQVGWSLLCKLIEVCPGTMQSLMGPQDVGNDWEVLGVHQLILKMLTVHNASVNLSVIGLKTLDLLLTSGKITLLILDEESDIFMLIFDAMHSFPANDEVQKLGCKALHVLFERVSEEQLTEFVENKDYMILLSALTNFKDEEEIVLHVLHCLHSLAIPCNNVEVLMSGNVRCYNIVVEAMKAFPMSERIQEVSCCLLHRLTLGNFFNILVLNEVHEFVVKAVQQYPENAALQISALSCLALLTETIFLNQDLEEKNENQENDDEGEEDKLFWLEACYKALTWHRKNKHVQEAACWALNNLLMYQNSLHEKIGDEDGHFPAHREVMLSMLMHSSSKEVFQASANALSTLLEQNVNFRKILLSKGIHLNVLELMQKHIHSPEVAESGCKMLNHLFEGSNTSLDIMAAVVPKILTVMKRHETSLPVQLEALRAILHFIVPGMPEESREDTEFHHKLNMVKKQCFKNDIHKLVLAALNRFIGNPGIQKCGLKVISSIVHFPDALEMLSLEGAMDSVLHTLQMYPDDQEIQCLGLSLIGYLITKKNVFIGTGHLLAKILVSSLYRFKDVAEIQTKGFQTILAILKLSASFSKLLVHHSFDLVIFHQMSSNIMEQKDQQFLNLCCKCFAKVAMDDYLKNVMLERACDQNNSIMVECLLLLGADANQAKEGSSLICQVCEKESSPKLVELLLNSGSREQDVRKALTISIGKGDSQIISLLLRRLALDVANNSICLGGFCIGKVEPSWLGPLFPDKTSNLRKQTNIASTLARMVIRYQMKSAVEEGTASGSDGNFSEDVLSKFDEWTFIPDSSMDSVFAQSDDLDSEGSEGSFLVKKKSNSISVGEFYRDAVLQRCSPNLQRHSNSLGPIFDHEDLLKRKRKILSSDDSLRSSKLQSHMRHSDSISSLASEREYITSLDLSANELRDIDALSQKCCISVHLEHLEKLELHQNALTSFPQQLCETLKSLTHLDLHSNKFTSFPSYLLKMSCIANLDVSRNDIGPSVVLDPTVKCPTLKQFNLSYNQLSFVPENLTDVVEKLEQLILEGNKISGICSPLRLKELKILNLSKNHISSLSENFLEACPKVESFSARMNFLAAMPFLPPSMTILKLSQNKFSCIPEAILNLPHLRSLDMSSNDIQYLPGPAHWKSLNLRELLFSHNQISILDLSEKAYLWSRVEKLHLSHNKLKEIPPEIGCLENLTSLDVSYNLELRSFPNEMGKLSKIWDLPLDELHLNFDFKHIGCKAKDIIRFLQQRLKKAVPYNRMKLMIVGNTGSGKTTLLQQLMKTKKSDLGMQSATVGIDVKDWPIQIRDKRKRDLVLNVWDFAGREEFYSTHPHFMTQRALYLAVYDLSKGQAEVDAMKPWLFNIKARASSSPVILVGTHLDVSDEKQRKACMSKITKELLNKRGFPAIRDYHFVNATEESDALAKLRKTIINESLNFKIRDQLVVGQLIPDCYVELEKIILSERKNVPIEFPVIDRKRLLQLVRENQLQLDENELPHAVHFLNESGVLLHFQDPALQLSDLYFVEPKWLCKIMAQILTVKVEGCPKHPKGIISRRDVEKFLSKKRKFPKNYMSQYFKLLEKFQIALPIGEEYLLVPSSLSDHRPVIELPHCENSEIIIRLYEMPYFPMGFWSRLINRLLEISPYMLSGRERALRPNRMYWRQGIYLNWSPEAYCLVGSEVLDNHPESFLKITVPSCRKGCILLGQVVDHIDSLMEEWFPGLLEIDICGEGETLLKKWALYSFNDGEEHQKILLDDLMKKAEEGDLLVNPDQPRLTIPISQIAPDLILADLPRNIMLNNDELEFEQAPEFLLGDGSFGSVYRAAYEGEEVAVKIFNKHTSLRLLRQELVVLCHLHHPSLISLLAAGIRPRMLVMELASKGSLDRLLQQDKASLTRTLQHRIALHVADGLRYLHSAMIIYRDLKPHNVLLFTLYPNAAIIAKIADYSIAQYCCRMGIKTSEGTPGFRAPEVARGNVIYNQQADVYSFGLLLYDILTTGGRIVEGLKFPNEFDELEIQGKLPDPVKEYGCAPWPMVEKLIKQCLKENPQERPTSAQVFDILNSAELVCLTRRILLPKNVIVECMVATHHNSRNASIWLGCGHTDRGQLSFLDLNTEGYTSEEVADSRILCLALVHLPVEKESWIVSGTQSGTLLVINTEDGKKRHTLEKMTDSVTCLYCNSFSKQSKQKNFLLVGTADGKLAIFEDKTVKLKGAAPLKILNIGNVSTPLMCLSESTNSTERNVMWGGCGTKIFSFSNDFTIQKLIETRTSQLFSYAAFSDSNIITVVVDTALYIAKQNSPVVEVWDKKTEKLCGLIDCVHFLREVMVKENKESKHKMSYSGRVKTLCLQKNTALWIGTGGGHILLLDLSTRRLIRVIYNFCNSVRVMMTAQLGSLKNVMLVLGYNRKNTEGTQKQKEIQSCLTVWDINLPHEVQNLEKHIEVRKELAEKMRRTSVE
T1 sequence (Q5S007 whole entry, the tested form may be a part): as the sequence (Q5S007 whole entry G2019S, the tested form may be a part) above, with S2019G counted along it
Sequence of Serine/threonine-protein kinase PLK2 (Homo sapiens) (Q9NYY3 whole entry, looked up): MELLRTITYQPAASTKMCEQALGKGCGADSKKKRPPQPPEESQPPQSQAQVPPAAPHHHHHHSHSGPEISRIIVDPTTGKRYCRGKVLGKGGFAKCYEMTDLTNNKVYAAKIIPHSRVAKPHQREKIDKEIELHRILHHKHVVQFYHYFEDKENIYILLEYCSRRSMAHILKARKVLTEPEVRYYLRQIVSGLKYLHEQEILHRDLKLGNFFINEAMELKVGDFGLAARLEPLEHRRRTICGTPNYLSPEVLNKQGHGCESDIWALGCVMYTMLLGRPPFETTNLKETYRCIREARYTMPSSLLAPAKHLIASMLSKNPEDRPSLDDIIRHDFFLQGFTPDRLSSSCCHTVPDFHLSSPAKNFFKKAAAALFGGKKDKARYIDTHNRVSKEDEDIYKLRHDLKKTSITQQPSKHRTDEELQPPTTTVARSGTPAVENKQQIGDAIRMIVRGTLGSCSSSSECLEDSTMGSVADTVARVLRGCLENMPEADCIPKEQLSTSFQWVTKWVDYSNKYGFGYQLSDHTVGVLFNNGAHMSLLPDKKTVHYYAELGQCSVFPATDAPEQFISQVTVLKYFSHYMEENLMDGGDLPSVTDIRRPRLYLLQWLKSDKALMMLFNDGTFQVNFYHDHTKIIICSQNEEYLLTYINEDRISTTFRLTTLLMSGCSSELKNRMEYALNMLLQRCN
Sequence of Serine/threonine-protein kinase PLK3 (Homo sapiens) (Q9H4B4 whole entry, looked up): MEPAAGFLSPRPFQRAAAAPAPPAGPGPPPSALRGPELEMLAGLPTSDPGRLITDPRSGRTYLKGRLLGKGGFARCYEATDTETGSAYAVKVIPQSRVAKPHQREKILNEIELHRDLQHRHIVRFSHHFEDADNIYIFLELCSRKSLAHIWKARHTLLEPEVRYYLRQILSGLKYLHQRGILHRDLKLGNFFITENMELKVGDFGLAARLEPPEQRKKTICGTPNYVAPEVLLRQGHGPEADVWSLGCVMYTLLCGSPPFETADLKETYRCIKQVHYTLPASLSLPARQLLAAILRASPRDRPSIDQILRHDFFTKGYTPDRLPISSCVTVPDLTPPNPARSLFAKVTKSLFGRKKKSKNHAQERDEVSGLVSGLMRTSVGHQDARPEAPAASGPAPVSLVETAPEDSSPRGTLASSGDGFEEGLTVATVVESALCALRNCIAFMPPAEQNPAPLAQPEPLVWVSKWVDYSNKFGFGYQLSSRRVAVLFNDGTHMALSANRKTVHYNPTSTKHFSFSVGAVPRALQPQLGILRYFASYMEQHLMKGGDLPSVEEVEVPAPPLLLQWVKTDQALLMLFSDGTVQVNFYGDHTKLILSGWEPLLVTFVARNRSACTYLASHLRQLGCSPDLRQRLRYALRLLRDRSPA
Sequence of Tyrosine-protein kinase JAK1 (Homo sapiens) (P23458 whole entry): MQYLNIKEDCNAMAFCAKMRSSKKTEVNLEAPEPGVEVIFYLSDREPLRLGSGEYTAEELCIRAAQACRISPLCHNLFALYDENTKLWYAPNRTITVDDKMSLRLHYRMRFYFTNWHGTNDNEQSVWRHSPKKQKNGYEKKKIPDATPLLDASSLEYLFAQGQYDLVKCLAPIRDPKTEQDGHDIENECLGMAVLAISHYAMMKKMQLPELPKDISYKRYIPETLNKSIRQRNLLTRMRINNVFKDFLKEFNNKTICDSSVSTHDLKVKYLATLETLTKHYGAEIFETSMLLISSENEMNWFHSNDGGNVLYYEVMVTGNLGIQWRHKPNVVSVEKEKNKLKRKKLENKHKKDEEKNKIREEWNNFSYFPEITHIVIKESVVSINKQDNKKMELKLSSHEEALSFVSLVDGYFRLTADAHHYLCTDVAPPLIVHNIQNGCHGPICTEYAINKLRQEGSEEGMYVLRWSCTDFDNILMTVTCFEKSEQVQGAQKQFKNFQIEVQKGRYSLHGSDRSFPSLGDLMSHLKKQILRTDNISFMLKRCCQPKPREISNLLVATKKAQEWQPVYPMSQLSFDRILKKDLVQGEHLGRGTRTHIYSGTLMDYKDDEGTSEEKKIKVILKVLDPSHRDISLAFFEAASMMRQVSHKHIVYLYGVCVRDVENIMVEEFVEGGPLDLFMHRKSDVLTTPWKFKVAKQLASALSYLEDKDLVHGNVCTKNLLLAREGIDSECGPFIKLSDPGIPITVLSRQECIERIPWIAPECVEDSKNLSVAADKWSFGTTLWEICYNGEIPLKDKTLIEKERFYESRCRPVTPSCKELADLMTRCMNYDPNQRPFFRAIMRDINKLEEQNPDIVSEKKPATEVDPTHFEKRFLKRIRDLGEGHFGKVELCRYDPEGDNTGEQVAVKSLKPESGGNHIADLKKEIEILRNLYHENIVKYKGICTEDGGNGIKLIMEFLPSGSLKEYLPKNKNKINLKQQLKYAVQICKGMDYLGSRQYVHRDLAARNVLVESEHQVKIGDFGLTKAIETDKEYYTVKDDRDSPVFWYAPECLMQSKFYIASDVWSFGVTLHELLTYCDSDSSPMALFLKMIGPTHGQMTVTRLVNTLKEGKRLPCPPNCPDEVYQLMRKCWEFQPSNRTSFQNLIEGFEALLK

| IC50 [1] [nM] | IC50 [2] [nM] | permeability (MDCK) | EC50 [3] [nM] | Drug uptake (Brain) | inhibition [4] [%] | inhibition [5] [%] | inhibition [6] [%] | inhibition [7] [%] | inhibition [8] [%] | inhibition [9] [%] | inhibition [10] [%] | inhibition [11] [%] | inhibition [12] [%] | inhibition [13] [%] | inhibition [14] [%] | inhibition [15] [%] | inhibition [16] [%] | inhibition [17] [%] | inhibition [18] [%] | SMILES | further results |
| --- | --- | --- | --- | --- | --- | --- | --- | --- | --- | --- | --- | --- | --- | --- | --- | --- | --- | --- | --- | --- | --- |
| 48 | 27 | impermeable | 731 | Active |  |  |  |  |  |  |  |  |  |  |  |  |  |  |  | C[C@@H](Nc1c(C#N)cnc2cc(-c3ccc(-n4ccoc4=O)cc3)ccc12)C1CC1 |  |
| 7 | 5 | impermeable | 140 | Active | 5 | 41 | 84 | 89 | 49 | 92 | 89 | 27 | 3 | 64 | 30 | 24 | 12 | 14 | 12 | CC(C)Nc1c(C#N)cnc2cc(-c3cnn(C)c3)ccc12 | inhibition [19]: 12%; inhibition [20]: 9%; inhibition [21]: 55%; inhibition [22]: 10%; inhibition [23]: 96%; inhibition [24]: 5%; inhibition [25]: -2%; inhibition [26]: 77% |
| 31 | 28 | impermeable | 435 | Active | 19 | 43 | 16 | 71 | 49 | 80 | 73 | 25 | 16 | 52 | 33 | 20 | 33 | 12 | 3 | CC(C)Nc1c(C#N)cnc2cc(-c3ccc(S(C)(=O)=O)cc3)ccc12 | inhibition [19]: 13%; inhibition [20]: 9%; inhibition [21]: 39%; inhibition [22]: 3%; inhibition [23]: 82%; inhibition [24]: 12%; inhibition [25]: 10%; inhibition [26]: 17% |
